Columns and labels:
Test in all cases: Kinase profiling in a biochemical assay panel (mobility shift assays and ELISA), %-inhibition at 1 μM; selectivity entropy
[1] = target: panel of more than 300 wild-type and mutant kinases (313 kinase panel) (Homo sapiens, UniProt P07947, T348I)
[2] = target: panel of more than 300 wild-type and mutant kinases (313 kinase panel) (Homo sapiens, UniProt P15056)
[3] = target: panel of more than 300 wild-type and mutant kinases (313 kinase panel) (Homo sapiens, UniProt P15056, V600E)
panel of more than 300 wild-type and mutant kinases (313 kinase panel) (Homo sapiens, UniProt P15056, V600E), sequence (P15056 whole entry V600E): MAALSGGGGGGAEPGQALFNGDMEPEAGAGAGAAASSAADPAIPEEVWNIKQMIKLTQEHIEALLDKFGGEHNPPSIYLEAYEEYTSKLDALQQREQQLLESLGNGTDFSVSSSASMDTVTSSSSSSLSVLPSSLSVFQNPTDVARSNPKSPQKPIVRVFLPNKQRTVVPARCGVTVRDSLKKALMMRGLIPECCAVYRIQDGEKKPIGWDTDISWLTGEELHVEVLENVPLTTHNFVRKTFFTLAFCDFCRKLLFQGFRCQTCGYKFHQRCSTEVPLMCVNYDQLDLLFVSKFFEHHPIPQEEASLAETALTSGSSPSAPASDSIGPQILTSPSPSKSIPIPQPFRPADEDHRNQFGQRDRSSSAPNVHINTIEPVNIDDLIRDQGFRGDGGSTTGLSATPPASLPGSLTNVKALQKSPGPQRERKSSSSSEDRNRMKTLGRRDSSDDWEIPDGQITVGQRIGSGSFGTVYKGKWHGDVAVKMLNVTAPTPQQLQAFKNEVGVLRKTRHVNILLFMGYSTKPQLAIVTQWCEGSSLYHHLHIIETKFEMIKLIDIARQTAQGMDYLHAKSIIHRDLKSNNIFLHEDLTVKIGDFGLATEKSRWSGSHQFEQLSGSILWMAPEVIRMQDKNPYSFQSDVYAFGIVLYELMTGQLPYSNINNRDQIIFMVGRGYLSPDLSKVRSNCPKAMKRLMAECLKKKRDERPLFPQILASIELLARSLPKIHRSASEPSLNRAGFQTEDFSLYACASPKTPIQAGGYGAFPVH

[4] = target: panel of more than 300 wild-type and mutant kinases (313 kinase panel) (Homo sapiens, UniProt P35968)
[5] = target: panel of more than 300 wild-type and mutant kinases (313 kinase panel) (Homo sapiens, UniProt P00519)
[6] = target: T1, panel of more than 300 wild-type and mutant kinases (313 kinase panel) (Homo sapiens, UniProt P42679)
T1 sequence (P42679 1-507): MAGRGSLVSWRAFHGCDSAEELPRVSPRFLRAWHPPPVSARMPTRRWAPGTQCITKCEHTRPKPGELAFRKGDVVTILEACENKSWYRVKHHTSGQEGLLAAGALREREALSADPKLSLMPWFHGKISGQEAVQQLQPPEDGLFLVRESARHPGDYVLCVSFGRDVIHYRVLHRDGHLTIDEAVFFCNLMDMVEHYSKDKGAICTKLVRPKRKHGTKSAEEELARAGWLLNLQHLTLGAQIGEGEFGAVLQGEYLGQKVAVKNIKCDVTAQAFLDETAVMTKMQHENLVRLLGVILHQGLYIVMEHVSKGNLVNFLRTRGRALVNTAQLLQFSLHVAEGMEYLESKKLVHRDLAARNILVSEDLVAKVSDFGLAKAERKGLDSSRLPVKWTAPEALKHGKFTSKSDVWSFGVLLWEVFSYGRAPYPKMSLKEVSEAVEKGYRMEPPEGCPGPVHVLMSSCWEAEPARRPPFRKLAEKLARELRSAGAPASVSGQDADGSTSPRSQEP

[7] = target: T2, panel of more than 300 wild-type and mutant kinases (313 kinase panel) (Homo sapiens, UniProt O00444)
T2 sequence (O00444 1-970): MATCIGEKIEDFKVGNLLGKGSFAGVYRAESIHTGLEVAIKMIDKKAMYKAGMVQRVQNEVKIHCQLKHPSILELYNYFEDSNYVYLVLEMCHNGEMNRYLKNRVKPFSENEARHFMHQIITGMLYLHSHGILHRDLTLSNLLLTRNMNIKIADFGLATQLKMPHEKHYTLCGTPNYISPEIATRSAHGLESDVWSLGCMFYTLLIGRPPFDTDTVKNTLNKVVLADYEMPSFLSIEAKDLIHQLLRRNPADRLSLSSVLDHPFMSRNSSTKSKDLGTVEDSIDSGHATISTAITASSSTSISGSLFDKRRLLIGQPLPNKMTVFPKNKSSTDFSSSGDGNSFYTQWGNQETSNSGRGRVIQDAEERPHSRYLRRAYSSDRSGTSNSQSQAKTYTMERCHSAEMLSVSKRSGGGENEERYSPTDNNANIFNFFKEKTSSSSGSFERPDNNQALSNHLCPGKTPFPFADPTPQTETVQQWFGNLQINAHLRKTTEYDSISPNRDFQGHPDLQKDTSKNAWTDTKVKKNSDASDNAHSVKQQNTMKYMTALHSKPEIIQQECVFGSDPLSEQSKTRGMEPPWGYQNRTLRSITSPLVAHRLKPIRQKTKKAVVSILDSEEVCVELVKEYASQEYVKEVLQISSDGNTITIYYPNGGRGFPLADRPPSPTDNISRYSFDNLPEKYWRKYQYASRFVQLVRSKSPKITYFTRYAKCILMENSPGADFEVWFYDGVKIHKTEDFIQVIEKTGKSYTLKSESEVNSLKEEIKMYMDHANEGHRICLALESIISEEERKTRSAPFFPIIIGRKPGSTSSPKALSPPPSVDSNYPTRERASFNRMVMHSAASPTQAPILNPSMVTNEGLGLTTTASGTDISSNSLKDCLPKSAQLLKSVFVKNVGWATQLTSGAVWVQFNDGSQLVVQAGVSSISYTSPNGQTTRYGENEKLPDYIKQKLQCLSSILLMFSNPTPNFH

[8] = target: panel of more than 300 wild-type and mutant kinases (313 kinase panel) (Homo sapiens, UniProt P00533, L858R/T790M)
panel of more than 300 wild-type and mutant kinases (313 kinase panel) (Homo sapiens, UniProt P00533, L858R/T790M), sequence (P00533 25-1210 T790M/L858R): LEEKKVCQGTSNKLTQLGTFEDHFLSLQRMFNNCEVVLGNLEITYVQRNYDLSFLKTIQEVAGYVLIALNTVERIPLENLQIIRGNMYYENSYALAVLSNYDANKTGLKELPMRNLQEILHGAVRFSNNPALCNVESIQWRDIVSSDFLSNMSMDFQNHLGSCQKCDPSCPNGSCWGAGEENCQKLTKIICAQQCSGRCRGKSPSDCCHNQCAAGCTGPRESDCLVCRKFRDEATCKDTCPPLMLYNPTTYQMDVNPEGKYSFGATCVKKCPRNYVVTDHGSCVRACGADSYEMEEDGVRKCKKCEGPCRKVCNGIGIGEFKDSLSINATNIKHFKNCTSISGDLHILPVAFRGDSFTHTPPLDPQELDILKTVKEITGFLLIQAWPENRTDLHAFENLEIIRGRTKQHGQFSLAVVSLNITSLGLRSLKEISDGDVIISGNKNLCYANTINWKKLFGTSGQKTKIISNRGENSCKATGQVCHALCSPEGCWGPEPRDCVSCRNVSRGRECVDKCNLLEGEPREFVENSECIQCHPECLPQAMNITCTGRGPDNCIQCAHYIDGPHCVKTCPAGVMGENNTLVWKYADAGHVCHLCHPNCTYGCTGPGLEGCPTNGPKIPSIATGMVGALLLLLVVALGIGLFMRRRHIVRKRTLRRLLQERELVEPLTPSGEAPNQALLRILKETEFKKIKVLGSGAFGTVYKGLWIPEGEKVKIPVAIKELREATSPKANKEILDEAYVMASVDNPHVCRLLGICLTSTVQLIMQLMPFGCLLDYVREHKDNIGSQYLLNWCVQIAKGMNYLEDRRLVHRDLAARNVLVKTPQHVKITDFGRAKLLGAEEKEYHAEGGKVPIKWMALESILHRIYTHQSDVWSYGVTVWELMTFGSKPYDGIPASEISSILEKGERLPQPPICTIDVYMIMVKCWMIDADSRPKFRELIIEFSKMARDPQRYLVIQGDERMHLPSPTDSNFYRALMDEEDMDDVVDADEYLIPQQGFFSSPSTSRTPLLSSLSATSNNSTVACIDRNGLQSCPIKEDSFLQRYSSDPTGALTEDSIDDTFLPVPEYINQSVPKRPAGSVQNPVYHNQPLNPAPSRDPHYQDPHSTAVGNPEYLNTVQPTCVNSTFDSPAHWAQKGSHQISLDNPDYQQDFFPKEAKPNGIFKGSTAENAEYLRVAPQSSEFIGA

[9] = target: panel of more than 300 wild-type and mutant kinases (313 kinase panel) (Homo sapiens, UniProt P00533, L861Q); conditions: kinase EGFR(L861Q); compound at 1 μM
[10] = target: panel of more than 300 wild-type and mutant kinases (313 kinase panel) (Homo sapiens, UniProt P00533)
[11] = target: panel of more than 300 wild-type and mutant kinases (313 kinase panel) (Homo sapiens, UniProt P00533, T790M); conditions: kinase EGFR(T790M); compound at 1 μM
panel of more than 300 wild-type and mutant kinases (313 kinase panel) (Homo sapiens, UniProt P00533, T790M), sequence (P00533 25-1210 T790M): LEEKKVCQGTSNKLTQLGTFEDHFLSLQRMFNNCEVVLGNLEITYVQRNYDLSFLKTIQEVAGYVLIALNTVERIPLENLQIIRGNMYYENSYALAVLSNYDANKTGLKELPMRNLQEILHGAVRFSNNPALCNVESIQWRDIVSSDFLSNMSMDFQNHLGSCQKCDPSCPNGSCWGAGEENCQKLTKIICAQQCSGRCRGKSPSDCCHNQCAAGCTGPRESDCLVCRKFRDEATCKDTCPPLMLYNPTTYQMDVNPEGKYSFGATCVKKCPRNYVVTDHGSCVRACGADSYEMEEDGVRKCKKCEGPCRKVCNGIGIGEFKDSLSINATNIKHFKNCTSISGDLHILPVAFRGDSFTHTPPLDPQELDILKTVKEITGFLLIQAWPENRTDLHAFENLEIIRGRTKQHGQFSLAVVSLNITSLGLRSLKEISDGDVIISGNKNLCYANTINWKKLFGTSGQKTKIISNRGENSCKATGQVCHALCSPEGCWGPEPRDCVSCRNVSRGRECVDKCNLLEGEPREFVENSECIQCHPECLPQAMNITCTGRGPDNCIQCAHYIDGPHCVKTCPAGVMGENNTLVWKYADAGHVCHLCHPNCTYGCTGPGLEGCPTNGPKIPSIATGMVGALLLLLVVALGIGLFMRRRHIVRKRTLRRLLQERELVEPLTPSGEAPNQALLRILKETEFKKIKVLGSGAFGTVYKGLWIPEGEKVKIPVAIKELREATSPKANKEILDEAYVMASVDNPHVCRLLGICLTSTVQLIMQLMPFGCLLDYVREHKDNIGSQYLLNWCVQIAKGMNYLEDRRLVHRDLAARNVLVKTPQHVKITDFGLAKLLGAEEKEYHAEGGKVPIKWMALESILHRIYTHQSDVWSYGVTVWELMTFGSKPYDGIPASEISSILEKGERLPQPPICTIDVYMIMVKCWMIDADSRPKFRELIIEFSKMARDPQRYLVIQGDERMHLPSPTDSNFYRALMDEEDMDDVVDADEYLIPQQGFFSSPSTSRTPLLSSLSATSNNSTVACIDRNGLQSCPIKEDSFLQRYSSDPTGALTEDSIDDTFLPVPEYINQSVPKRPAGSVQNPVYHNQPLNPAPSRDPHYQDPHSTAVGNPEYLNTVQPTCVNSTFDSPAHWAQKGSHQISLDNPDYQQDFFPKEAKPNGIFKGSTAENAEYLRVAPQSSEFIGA

[12] = target: panel of more than 300 wild-type and mutant kinases (313 kinase panel) (Homo sapiens, UniProt O75914); conditions: kinase PAK3; 1 μM
panel of more than 300 wild-type and mutant kinases (313 kinase panel) (Homo sapiens, UniProt O75914), sequence (O75914 whole entry, stated change not applied): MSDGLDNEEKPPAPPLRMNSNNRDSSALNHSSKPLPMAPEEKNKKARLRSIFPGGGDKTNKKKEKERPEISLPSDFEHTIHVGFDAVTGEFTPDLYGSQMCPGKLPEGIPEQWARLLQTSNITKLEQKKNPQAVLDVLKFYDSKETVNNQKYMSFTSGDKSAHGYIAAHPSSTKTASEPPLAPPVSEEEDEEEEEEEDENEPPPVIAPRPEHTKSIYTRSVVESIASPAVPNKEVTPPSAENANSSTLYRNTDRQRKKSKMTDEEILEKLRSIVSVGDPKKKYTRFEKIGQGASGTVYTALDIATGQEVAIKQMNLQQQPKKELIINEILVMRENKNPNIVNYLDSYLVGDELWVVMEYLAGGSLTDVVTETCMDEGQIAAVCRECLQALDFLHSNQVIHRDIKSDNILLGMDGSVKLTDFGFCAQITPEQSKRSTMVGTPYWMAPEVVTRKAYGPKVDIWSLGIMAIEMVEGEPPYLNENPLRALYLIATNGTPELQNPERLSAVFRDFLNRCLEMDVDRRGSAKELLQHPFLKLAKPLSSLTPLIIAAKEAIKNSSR

[13] = kinase YES(T348I), compound at 1 μM
[14] = kinase BRAF(V600E), 1 μM compound
[15] = kinase EGFR(T790M/L858R), compound at 1 μM

panel of more than 300 wild-type and mutant kinases (313 kinase panel) (Homo sapiens, UniProt P07947, T348I), sequence (P07947 whole entry T348I): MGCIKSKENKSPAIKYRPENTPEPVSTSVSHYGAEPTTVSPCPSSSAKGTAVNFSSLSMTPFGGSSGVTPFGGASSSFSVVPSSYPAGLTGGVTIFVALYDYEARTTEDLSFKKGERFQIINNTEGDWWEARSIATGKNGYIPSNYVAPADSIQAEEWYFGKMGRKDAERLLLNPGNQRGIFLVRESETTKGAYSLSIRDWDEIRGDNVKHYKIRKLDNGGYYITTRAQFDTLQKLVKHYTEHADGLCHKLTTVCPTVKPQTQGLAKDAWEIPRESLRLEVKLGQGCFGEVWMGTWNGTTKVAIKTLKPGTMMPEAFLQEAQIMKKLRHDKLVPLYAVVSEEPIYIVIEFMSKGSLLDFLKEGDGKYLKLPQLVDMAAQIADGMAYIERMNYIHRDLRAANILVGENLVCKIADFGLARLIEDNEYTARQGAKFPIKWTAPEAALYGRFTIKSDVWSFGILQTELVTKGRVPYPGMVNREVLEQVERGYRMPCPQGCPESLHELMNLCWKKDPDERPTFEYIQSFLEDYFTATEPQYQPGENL
panel of more than 300 wild-type and mutant kinases (313 kinase panel) (Homo sapiens, UniProt P15056), sequence (P15056 whole entry, stated change not applied): as the sequence (P15056 whole entry V600E) above, with E600V counted along it

| Compound | %-inhibition of YES(T348I) [1, 13] [%] | %-inhibition, BRAF ([2]; kinase BRAF, 1 μM compound) [%] | %-inhibition, BRAF(V600E) [3, 14] [%] | %-inhibition of KDR ([4]; kinase KDR, compound at 1 μM) [%] | %-inhibition of EGFR(T790M/L858R) [8, 15] [%] | %-inhibition of EGFR(T790M) [11] [%] | also measured |
| --- | --- | --- | --- | --- | --- | --- | --- |
| C[C@@H](Oc1cc(-c2cnn(C3CCNCC3)c2)cnc1N)c1c(Cl)ccc(F)c1Cl [crizotinib] | 93 | 12 | 10 |  |  |  |  |
| COc1cc2c(Nc3ccc(Br)cc3F)ncnc2cc1OCC1CCN(C)CC1 [vandetanib] | 100 | 24 | 18 |  |  |  |  |
| O=S(=O)(c1cccc2cnccc12)N1CCCNCC1 [fasudil] | 6 | -3.28 | 3.36 | 1.78 |  |  | %-inhibition, ABL ([5]; kinase ABL, 1 μM compound): -8% |
| C#Cc1cccc(Nc2ncnc3cc(OCCOC)c(OCCOC)cc23)c1 [erlotinib] |  |  |  |  |  |  | %-inhibition of CTK ([6]; 1 µM): 22%; %-inhibition of KDR ([4]; 1 µM): 74%; %-inhibition, BRAF ([2]; 1 µM): 14%; %-inhibition of PLK4 ([7]; 1 µM): 9%; %-inhibition, BRAF(V600E) ([3]; 1 µM): 8%; %-inhibition, ABL ([5]; 1 µM): 64% |
| COc1cc2nccc(Oc3ccc(NC(=O)C4(C(=O)Nc5ccc(F)cc5)CC4)cc3)c2cc1OC [cabozantinib] | 67 | 25 | 37 |  | 29 | 32 | %-inhibition of EGFR(L861Q) [9]: 46%; %-inhibition of EGFR ([10]; kinase EGFR, compound at 1 μM): 54%; %-inhibition, ABL ([5]; kinase ABL, 1 μM compound): 56% |
| Cc1ccc(C(=O)Nc2ccc(CN3CCN(C)CC3)c(C(F)(F)F)c2)cc1C#Cc1cnc2cccnn12 [ponatinib] | 96 | 89 | 84 |  |  |  | %-inhibition of EGFR(T790M/L858R) ([8]; 1 µM): 49%; %-inhibition of EGFR ([10]; 1 µM): 97% |
| CCCS(=O)(=O)Nc1ccc(F)c(C(=O)c2c[nH]c3ncc(-c4ccc(Cl)cc4)cc23)c1F [vemurafenib] | 4 | 99 |  | 13 | 5 | -5.57 | %-inhibition of EGFR(L861Q) [9]: 5%; %-inhibition of EGFR ([10]; kinase EGFR, compound at 1 μM): 7%; %-inhibition, ABL ([5]; kinase ABL, 1 μM compound): 15% |
| CCN(CC)CCNC(=O)c1c(C)[nH]c(/C=C2\C(=O)Nc3ccc(F)cc32)c1C [sunitinib] |  |  |  |  |  |  | %-inhibition of CTK ([6]; kinase CTK, compound at 1 μM): 28%; %-inhibition of PLK4 ([7]; kinase PLK4, 1 μM): 58% |
| Cc1cn(-c2cc(NC(=O)c3ccc(C)c(Nc4nccc(-c5cccnc5)n4)c3)cc(C(F)(F)F)c2)cn1 [nilotinib] |  |  |  | 22 |  | 7.54 | %-inhibition of EGFR(L861Q) [9]: 11%; %-inhibition of CTK ([6]; 1 µM): 7%; %-inhibition of EGFR ([10]; kinase EGFR, compound at 1 μM): 17%; %-inhibition of PLK4 ([7]; kinase PLK4, 1 μM): 21%; %-inhibition of PAK3 [12]: -4% |
| CS(=O)(=O)CCNCc1ccc(-c2ccc3ncnc(Nc4ccc(OCc5cccc(F)c5)c(Cl)c4)c3c2)o1 [lapatinib] |  |  |  |  |  |  | %-inhibition of CTK ([6]; kinase CTK, compound at 1 μM): -0.699%; %-inhibition of PLK4 ([7]; 1 µM): -4.47%; %-inhibition of PAK3 [12]: 4.27%; %-inhibition, ABL ([5]; kinase ABL, 1 μM compound): 17% |
| CNC(=O)c1cc(Oc2ccc(NC(=O)Nc3ccc(Cl)c(C(F)(F)F)c3)c(F)c2)ccn1 [regorafenib] | 40 |  |  | 103 | 1.68 | -7.38 | %-inhibition of EGFR(L861Q) [9]: 6%; %-inhibition of EGFR ([10]; kinase EGFR, compound at 1 μM): 12%; %-inhibition, ABL ([5]; kinase ABL, 1 μM compound): 68% |
| Cc1nc(Nc2ncc(C(=O)Nc3c(C)cccc3Cl)s2)cc(N2CCN(CCO)CC2)n1 [dasatinib] |  |  |  |  |  |  | %-inhibition of PAK3 [12]: -1.28% |
| N#CC[C@H](C1CCCC1)n1cc(-c2ncnc3[nH]ccc23)cn1 [ruxolitinib] |  | 14 | 6 | 6.52 | -0.336 | -8 | %-inhibition of EGFR(L861Q) [9]: -3.22%; %-inhibition of YES(T348I) ([1]; 1 µM): 5%; %-inhibition of EGFR ([10]; kinase EGFR, compound at 1 μM): -0.278%; %-inhibition, ABL ([5]; 1 µM): 5% |
| CO[C@H]1C[C@@H]2CC[C@@H](C)[C@@](O)(O2)C(=O)C(=O)N2CCCC[C@H]2C(=O)O[C@H]([C@H](C)C[C@@H]2CC[C@@H](OCCO)[C@H](OC)C2)CC(=O)[C@H](C)/C=C(\C)[C@@H](O)[C@@H](OC)C(=O)[C@H](C)C[C@H](C)/C=C/C=C/C=C/1C [everolimus] | -0.414 | -6.54 | 2 | -6.38 | -5 |  |  |
| CC(=O)Nc1cccc(-n2c(=O)n(C3CC3)c(=O)c3c(Nc4ccc(I)cc4F)n(C)c(=O)c(C)c32)c1 [trametinib] | -2.82 | 78 | 37 | -0.549 | -6.51 |  |  |
| COc1cc(Nc2c(C#N)cnc3cc(OCCCN4CCN(C)CC4)c(OC)cc23)c(Cl)cc1Cl [bosutinib] |  |  |  |  |  | 87 |  |
| CO[C@H]1C[C@@H]2CC[C@@H](C)[C@@](O)(O2)C(=O)C(=O)N2CCCC[C@H]2C(=O)O[C@H]([C@H](C)C[C@@H]2CC[C@@H](OC(=O)C(C)(CO)CO)[C@H](OC)C2)CC(=O)[C@H](C)/C=C(\C)[C@@H](O)[C@@H](OC)C(=O)[C@H](C)C[C@H](C)/C=C/C=C/C=C/1C [temsirolimus] | -0.177 | -3.36 | -0.864 | -7 | -2.75 |  |  |

From article PMC3961306, “Comparison of the Cancer Gene Targeting and Biochemical Selectivities of All Targeted Kinase Inhibitors Approved for Clinical Use” (PLoS ONE, 2014)
